Test results taken from US20230278972A1, “SUBSTITUTED HALOALKYL SULFONANILIDE HERBICIDES” (FMC Corporation, priority 2020, published 2023).

How the values were obtained:
Format in all cases: in vivo
[1] = test system: barnyardgrass (Echinochloa crus-galli); test: Test A preemergence, barnyardgrass; settings: Preemergence; for Barnyardgrass plant response rating: 125 g ai/ha, visual injury on 0 to 100 scale (0 no effect, 100 complete control), approximately 10 days; for Plant response rating, Barnyardgrass: 0 to 100 scale (0 no effect, 100 complete control)
Procedure, shortened: (§1)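 Directed soil spray at planting gave the preemergence treatment, while foliar application to one- to two-leaf seedlings (2–10 cm) gave the postemergence one; pots held a loam and sand mixture and chemicals were carried in a non-phytotoxic solvent with surfactant.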

[2] = test system: Foxtail, Giant (giant foxtail, Setaria faberi); test: Test A preemergence, Foxtail, Giant; settings: Preemergence; for Foxtail, Giant plant response rating: 125 g ai/ha, visual injury on 0 to 100 scale (0 no effect, 100 complete control), approximately 10 days; for Plant response rating, Foxtail, Giant: 0 to 100 scale (0 no effect, 100 complete control)
Procedure, shortened: as §1

[3] = test system: galium (catchweed bedstraw, Galium aparine); test: Test A postemergence, galium; settings: Postemergence; for Galium plant response rating: visual injury vs untreated controls after approx. 10 days
Procedure, shortened: (§2)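 Preemergence: pigweed seeds in loam soil–sand blend received a directed soil spray of test chemicals in a non-phytotoxic solvent with surfactant. Postemergence: barnyardgrass, wheat and galium in pots of the same soil, 2 to 10 cm tall at one- to two-leaf stage, sprayed with the same formulation.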

[4] = test system: Ryegrass, Italian (Italian ryegrass, Lolium multiflorum); test: Test A preemergence, Ryegrass, Italian; settings: Preemergence; for Ryegrass, Italian plant response rating: 125 g ai/ha, visual injury on 0 to 100 scale (0 no effect, 100 complete control), approximately 10 days; for Plant response rating, Ryegrass, Italian: 0 to 100 scale (0 no effect, 100 complete control)
Procedure, shortened: as §1

[5] = test system: ragweed (common ragweed, Ambrosia artemisiifolia); test: Test A postemergence, ragweed; settings: Postemergence; for Ragweed plant response rating: visual injury vs untreated controls after approx. 10 days
Procedure, shortened: as §1

[6] = test system: pigweed (Amaranthus retroflexus); test: Test A preemergence, pigweed; settings: for Pigweed plant response rating: 125 g ai/ha, visual injury on 0 to 100 scale (0 no effect, 100 complete control), approximately 10 days; for Plant response rating, Pigweed: 0 to 100 scale (0 no effect, 100 complete control)
Procedure, shortened: as §2

[7] = test system: Foxtail, Giant (giant foxtail, Setaria faberi); test: Test A postemergence, Foxtail, Giant; settings: Postemergence; for Foxtail, Giant plant response rating: visual injury vs untreated controls after approx. 10 days
Procedure, shortened: as §1

kochia (Bassia scoparia) [8] = test: Test A preemergence, kochia; settings: Preemergence; for Kochia plant response rating: 125 g ai/ha, visual injury on 0 to 100 scale (0 no effect, 100 complete control), approximately 10 days; for Plant response rating, Kochia: 0 to 100 scale (0 no effect, 100 complete control)
Procedure, shortened: as §1

kochia (Bassia scoparia) [9] = test: Test A postemergence, kochia; settings: Postemergence; for Kochia plant response rating: visual injury vs untreated controls after approx. 10 days
Procedure, shortened: as §1

corn (Zea mays) = test: Test A postemergence, corn; settings: Postemergence; for Corn plant response rating: visual injury vs untreated controls after approx. 10 days
Procedure, shortened: as §1

[10] = test system: barnyardgrass (Echinochloa crus-galli); test: Test A postemergence, barnyardgrass; settings: Postemergence, 0 to 100 scale (0 no effect, 100 complete control); for Barnyardgrass plant response rating: visual injury vs untreated controls after approx. 10 days
Procedure, shortened: as §2

[11] = test system: pigweed (Amaranthus retroflexus); test: Test A postemergence, pigweed; settings: Postemergence; for Pigweed plant response rating: visual injury vs untreated controls after approx. 10 days
Procedure, shortened: as §1

[12] = test system: ragweed (common ragweed, Ambrosia artemisiifolia); test: Test A preemergence, ragweed; settings: Preemergence; for Ragweed plant response rating: 125 g ai/ha, visual injury on 0 to 100 scale (0 no effect, 100 complete control), approximately 10 days; for Plant response rating, Ragweed: 0 to 100 scale (0 no effect, 100 complete control)
Procedure, shortened: as §1

[13] = test system: wheat (Triticum aestivum); test: Test A postemergence, wheat; settings: Postemergence; for Wheat plant response rating: visual injury vs untreated controls after approx. 10 days
Procedure, shortened: as §2

[14] = test system: Ryegrass, Italian (Italian ryegrass, Lolium multiflorum); test: Test A postemergence, Ryegrass, Italian; settings: Postemergence; for Ryegrass, Italian plant response rating: visual injury vs untreated controls after approx. 10 days
Procedure, shortened: as §1

[15] = test system: blackgrass (Alopecurus myosuroides); test: Test A postemergence, blackgrass; settings: Postemergence, 0 to 100 scale (0 no effect, 100 complete control); for Blackgrass plant response rating: visual injury vs untreated controls after approx. 10 days
Procedure, shortened: as §1

[16] = 125 g ai/ha, visual injury approx. 10 days, 0 to 100 scale (0 no effect, 100 complete control)
[17] = 500 g ai/ha, 0 to 100 scale (0 no effect, 100 complete control)
[18] = 125 g ai/ha, visual injury approx. 10 days
[19] = 31 g ai/ha, visual injury, approx. 10 days
[20] = 31 g ai/ha, visual injury on 0 to 100 scale (0 no effect, 100 complete control), approx. 10 days
[21] = 500 g ai/ha, visual injury, 0 to 100 scale (0 no effect, 100 complete control), approx. 10 days
[22] = 500 g ai/ha, visual injury, approx. 10 days

Compound | Barnyardgrass plant response rating [1] | Plant response rating, Barnyardgrass ([1]; 500 g ai/ha) | Foxtail, Giant plant response rating [2] | Plant response rating, Foxtail, Giant ([2]; 500 g ai/ha) | Plant response rating, Galium [3, 16] | Ryegrass, Italian plant response rating [4] | Plant response rating, Ryegrass, Italian ([4]; 500 g ai/ha) | Plant response rating, Ragweed [5, 16] | Pigweed plant response rating [6] | Plant response rating, Pigweed ([6]; 500 g ai/ha) | Plant response rating, Foxtail, Giant [7, 16] | Kochia plant response rating (kochia (Bassia scoparia) [8]) | Plant response rating, Kochia (kochia (Bassia scoparia) [8]; 500 g ai/ha) | Plant response rating, Kochia (kochia (Bassia scoparia) [9]; [16]) | Plant response rating, Corn (corn (Zea mays); [16]) | Plant response rating, Barnyardgrass [10, 18] | Plant response rating, Pigweed [11, 16] | Ragweed plant response rating [12] | Plant response rating, Ragweed ([12]; 500 g ai/ha) | Plant response rating, Blackgrass [15, 18] | other results
CCn1cc(-c2cc(NS(=O)(=O)C(F)(F)F)c(C)cc2C)c(=O)n(CC)c1=O [Compound 44] | 100 | 100 | 100 | 100 | 80 | 100 | 100 | 20 | 40 | 100 | 90 | 0 | 60 | 10 | 0 | 90 | 80 | 0 | 10 | 80 | Galium plant response rating [3, 17]: 90; Ragweed plant response rating [5, 17]: 50; Foxtail, Giant plant response rating [7, 17]: 90; Kochia plant response rating (kochia (Bassia scoparia) [9]; [17]): 30; Corn plant response rating (corn (Zea mays); [17]): 70; Barnyardgrass plant response rating ([10]; 500 g ai/ha): 90; Pigweed plant response rating [11, 17]: 90; Plant response rating, Wheat [13, 16]: 70; Wheat plant response rating [13, 17]: 70; Plant response rating, Ryegrass, Italian [14, 16]: 30; Ryegrass, Italian plant response rating [14, 17]: 30; Blackgrass plant response rating ([15]; 500 g ai/ha): 90
Cc1cc(C)c(C2=NOC3CCCCC23)cc1NS(=O)(=O)C(F)(F)F (stereo not shown) [Compound 131] | 90 | – | 100 | – | 90 | 80 | – | – | 90 | – | 10 | 40 | – | 60 | 20 | 80 | – | 40 | – | 0 | Plant response rating, Barnyardgrass [1, 19]: 70; Plant response rating, Foxtail, Giant [2, 19]: 90; Plant response rating, Galium [3, 20]: 60; Plant response rating, Ryegrass, Italian [4, 19]: 30; Plant response rating, Ragweed [5, 20]: 30; Plant response rating, Pigweed [6, 19]: 30; Plant response rating, Foxtail, Giant [7, 20]: 0; Plant response rating, Kochia (kochia (Bassia scoparia) [8]; [19]): 30; Plant response rating, Kochia (kochia (Bassia scoparia) [9]; [20]): 40; Plant response rating, Corn (corn (Zea mays); [20]): 0; Plant response rating, Barnyardgrass ([10]; 31 g ai/ha): 20; Plant response rating, Pigweed [11, 20]: 50; Plant response rating, Ragweed [12, 19]: 0; Plant response rating, Wheat [13, 20]: 0; Plant response rating, Ryegrass, Italian [14, 20]: 0; Plant response rating, Blackgrass ([15]; 31 g ai/ha): 20
Cc1cc(C)c(-n2ncccc2=O)cc1NS(=O)(=O)C(F)(F)F [Compound 83] | 70 | 80 | 10 | 80 | 60 | 30 | 50 | 10 | 50 | 90 | 0 | 60 | 70 | 0 | 0 | 20 | 40 | 0 | 20 | 0 | Galium plant response rating [3, 17]: 80; Ragweed plant response rating [5, 17]: 60; Foxtail, Giant plant response rating [7, 17]: 40; Kochia plant response rating (kochia (Bassia scoparia) [9]; [17]): 20; Corn plant response rating (corn (Zea mays); [17]): 30; Barnyardgrass plant response rating ([10]; 500 g ai/ha): 70; Pigweed plant response rating [11, 17]: 50; Plant response rating, Wheat [13, 16]: 0; Wheat plant response rating [13, 17]: 0; Plant response rating, Ryegrass, Italian [14, 16]: 0; Ryegrass, Italian plant response rating [14, 17]: 0; Blackgrass plant response rating ([15]; 500 g ai/ha): 0
CCn1cc(-c2cc(N(S(=O)(=O)C(F)(F)F)S(=O)(=O)C(F)(F)F)c(C)cc2C)c(=O)n(C)c1=O [Compound 30] | 90 | 90 | 80 | 100 | 70 | 90 | 90 | 40 | 20 | 60 | 70 | 70 | 90 | 10 | 0 | 90 | 40 | 20 | 40 | 60 | Plant response rating, Galium [3, 21]: 90; Plant response rating, Ragweed [5, 21]: 40; Plant response rating, Foxtail, Giant [7, 21]: 90; Plant response rating, Kochia (kochia (Bassia scoparia) [9]; [21]): 50; Plant response rating, Corn (corn (Zea mays); [21]): 40; Plant response rating, Barnyardgrass [10, 22]: 90; Plant response rating, Pigweed [11, 21]: 60; Plant response rating, Wheat [13, 16]: 60; Plant response rating, Wheat [13, 21]: 70; Plant response rating, Ryegrass, Italian [14, 16]: 40; Plant response rating, Ryegrass, Italian [14, 21]: 70; Plant response rating, Blackgrass [15, 22]: 80
